# From ChEMBL document CHEMBL5346887, “Design and evaluation of dibenzoazepine-tetrahydroisoquinoline hybrids as potential P-glycoprotein inhibitors against multidrug resistant K562/A02 cells” (Eur J Med Chem, 2023)
# Active and inactive are the calls of the source. No cut-off for these calls is given here.
# Key:
# [1] = test system: K562/A02; experiment: Cytotoxicity against human K562/A02 cells assessed as inhibition of cell growth incubated for 72 hrs by CCK-8 assay; type: functional, cell-based; conditions: K562/A02, 72 h
# [2] = test system: K562/A02; experiment: Reversal fold, ratio of ADR IC50 to test compound IC50 for reversal of multi-drug resistance in human K562/A02 cells; type: functional
# [3] = test system: K562/A02; experiment: Reversal fold, ratio of ADR IC50 to test compound IC50 for reversal of multi-drug resistance in human K562/A02 cells at 0.4 uM; type: functional
# [4] = test system: K562/A02; experiment: Reversal of adriamycin resistance in human K562/A02 cells incubated for 48 hrs; type: functional, cell-based; conditions: K562/A02, 48 h
# [5] = test system: K562/A02; experiment: Reversal of multi-drug resistance in human K562/A02 cells increase in intracellular Rh123 level incubated for 30 mins by flow cytometry analysis; type: functional, cell-based; conditions: dose 0.5-8 µM
# [6] = test system: K562; experiment: Reversal of multi-drug resistance in human K562 cells increase in intracellular Rh123 level at 0.5 to 8 uM incubated for 30 mins by flow cytometry analysis; type: functional, cell-based; conditions: dose 0.5-8 µM
# [7] = test system: K562/A02; experiment: Effect on P-gp expression in human K562/A02 cells at 0.5 to 8 uM measured after 24 hrs by Western blot analysis; type: functional, cell-based; conditions: dose 0.5-8 µM
# [8] = molecular target: ATP-dependent translocase ABCB1 (Homo sapiens, UniProt P08183); experiment: Binding affinity to p-gp in human K562/A02 cells assessed as increase in thermal stabilization at 50 uM incubated for 1 hr by CETSA analysis; type: cell-based; conditions: k562/a02, 1 h
# Sequence of ATP-dependent translocase ABCB1 (P08183 whole entry): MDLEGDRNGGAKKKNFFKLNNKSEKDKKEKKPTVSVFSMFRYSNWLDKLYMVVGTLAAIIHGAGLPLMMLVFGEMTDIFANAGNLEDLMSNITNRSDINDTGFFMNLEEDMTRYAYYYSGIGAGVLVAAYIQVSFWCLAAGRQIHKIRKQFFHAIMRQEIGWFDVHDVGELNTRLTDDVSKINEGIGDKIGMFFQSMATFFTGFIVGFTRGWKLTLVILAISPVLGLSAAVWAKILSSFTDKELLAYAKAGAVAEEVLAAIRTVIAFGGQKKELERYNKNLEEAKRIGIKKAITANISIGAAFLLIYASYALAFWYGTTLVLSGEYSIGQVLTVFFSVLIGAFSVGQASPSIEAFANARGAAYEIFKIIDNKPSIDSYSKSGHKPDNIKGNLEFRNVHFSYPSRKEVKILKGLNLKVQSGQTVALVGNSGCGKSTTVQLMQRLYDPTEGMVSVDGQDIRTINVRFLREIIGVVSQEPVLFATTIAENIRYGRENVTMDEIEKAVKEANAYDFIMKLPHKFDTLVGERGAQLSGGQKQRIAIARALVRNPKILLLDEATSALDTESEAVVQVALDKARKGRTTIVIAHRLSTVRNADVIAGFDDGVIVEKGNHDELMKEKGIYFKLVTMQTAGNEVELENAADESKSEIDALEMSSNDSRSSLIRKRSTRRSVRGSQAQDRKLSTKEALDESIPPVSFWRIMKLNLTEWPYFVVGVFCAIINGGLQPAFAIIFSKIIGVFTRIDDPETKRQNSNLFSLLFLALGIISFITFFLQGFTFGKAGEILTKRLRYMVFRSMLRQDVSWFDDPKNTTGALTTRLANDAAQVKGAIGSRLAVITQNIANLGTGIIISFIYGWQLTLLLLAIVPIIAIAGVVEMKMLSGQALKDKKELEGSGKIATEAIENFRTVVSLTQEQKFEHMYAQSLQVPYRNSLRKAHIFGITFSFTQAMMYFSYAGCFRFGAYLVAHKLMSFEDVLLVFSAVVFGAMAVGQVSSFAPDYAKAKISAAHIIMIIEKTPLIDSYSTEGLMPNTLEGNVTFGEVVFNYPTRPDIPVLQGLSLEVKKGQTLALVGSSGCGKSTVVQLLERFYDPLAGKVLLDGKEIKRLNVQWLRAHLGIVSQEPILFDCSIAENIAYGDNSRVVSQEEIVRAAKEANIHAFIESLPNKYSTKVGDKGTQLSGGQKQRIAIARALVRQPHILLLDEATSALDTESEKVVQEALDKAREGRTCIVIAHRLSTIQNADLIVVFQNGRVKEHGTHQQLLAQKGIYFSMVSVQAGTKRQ
# [9] = molecular target: Cytochrome P450 3A4 (Homo sapiens, UniProt P08684); experiment: Inhibition of CYP3A4 (unknown origin) using luciferin-IPA as substrate preincubated for 1 hr followed by substrate addition and measured after 1 hr by luminometer assay; type: ADME
# Sequence of Cytochrome P450 3A4 (P08684 whole entry): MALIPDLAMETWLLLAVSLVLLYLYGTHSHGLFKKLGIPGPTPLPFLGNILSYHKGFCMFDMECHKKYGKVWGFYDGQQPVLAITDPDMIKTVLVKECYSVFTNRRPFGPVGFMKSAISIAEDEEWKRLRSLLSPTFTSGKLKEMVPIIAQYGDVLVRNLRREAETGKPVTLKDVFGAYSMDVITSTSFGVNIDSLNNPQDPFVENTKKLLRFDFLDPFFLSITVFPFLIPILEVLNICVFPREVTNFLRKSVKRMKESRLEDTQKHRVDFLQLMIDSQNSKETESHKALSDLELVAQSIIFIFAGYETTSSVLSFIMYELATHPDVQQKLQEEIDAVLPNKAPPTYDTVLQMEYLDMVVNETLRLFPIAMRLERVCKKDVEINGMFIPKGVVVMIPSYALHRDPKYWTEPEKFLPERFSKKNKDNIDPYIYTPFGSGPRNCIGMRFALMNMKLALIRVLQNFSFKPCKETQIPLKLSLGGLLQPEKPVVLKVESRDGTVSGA
# [10] = test system: K562/A02; experiment: Antitumor activity against human K562/A02 cells xenografted in BALB/c nude mouse assessed as reduction in tumor volume at 20 mg/kg, ip measured upto 14 days by vernier caliper analysis; type: functional; conditions: time <= 14 day
# [11] = test system: K562/A02; experiment: Antitumor activity against human K562/A02 cells xenografted in BALB/c nude mouse assessed as reduction in tumor volume at 20 mg/kg, ip measured upto 14 days in presence of ADR by vernier caliper analysis; type: functional; conditions: time <= 14 day
# [12] = test system: K562/A02; experiment: Antitumor activity against human K562/A02 cells xenografted in BALB/c nude mouse assessed as reduction in tumor weight at 20 mg/kg, ip measured upto 14 days in presence of ADR by vernier caliper analysis; type: functional, organism-based; conditions: time <= 14.0 day
# [13] = test system: K562/A02; experiment: Antitumor activity against human K562/A02 cells xenografted in BALB/c nude mouse assessed as reduction in tumor volume at 2 mg/kg, ip measured upto 14 days by vernier caliper analysis; type: functional; conditions: time <= 14 day
# [14] = test system: K562; experiment: cells; conditions: Homo sapiens, K562, 72 h
# Description: Cytotoxicity against human K562 cells assessed as inhibition of cell growth incubated for 72 hrs by CCK-8 assay
SMILES,IC50 [1],Ratio IC50 [2],Ratio IC50 [3],further results
COc1ccc2c(c1)CCN(CCc1ccc(N3Cc4cc(OC)c5c(c4-c4c(cc(OC)c6c4OCO6)C3)OCO5)cc1)C2,> 100 µM,8.61,,
COc1cc2c(cc1OC)CN(Cc1ccc(N3Cc4cc(OC)c5c(c4-c4c(cc(OC)c6c4OCO6)C3)OCO5)cc1)CC2,13.6 µM,374.09,46.82,
COc1cc2c(cc1OC)CN(CCCN1Cc3cc(OC)c4c(c3-c3c(cc(OC)c5c3OCO5)C1)OCO4)CC2,16.6 µM,2.01,,
COc1cc2c(cc1OC)CN(CCc1ccc(N3Cc4cc(OC)c5c(c4-c4c(cc(OC)c6c4OCO6)C3)OCO5)cc1)CC2,95.4 µM,93.17,93.17,EC50 [4]: 0.0487 µM; Activity [5]: Dose-Dependent Effect; Activity [6]: Active; Activity [7]: inactive; Activity [8]: Active; IC50 [9]: 2.61 µM; Activity [10]: 525.75 mm3; Activity [11]: 158.27 mm3; Activity [12]: Active
COc1cc2c(cc1OC)CN(CCCCCCN1Cc3cc(OC)c4c(c3-c3c(cc(OC)c5c3OCO5)C1)OCO4)CC2,2.04 µM,,8.24,
COc1ccc2c(c1)CCN(CCCN1Cc3cc(OC)c4c(c3-c3c(cc(OC)c5c3OCO5)C1)OCO4)C2,5.31 µM,,1.67,
COc1cccc2c1C(=O)c1c(O)c3c(c(O)c1C2=O)C[C@@](O)(C(=O)CO)C[C@@H]3O[C@H]1C[C@H](N)[C@H](O)[C@H](C)O1.Cl [DOXORUBICIN HYDROCHLORIDE],2.4 µM,,,Activity [13]: 526.45 mm3; IC50 [14]: 0.001 µM
COc1cc2c(c3c1OCO3)-c1c(cc(OC)c3c1OCO3)CN(c1ccc(CN3CCCCC3)cc1)C2,19.3 µM,113.14,21.82,
COc1cc2c(cc1OC)CN(CCN1Cc3cc(OC)c4c(c3-c3c(cc(OC)c5c3OCO5)C1)OCO4)CC2,7.78 µM,4.29,,
COc1ccc(C(=O)Nc2ccccc2C(=O)Nc2ccc(CCN3CCc4cc(OC)c(OC)cc4C3)cc2)cc1OC,9.08 µM,81.9,,EC50 [4]: 0.0303 µM
COc1cc2c(c3c1OCO3)-c1c(cc(OC)c3c1OCO3)CN(c1ccc(CCN3CCNCC3)cc1)C2,4.63 µM,,14.23,
COc1ccc2c(c1)CCN(CCCCCCN1Cc3cc(OC)c4c(c3-c3c(cc(OC)c5c3OCO5)C1)OCO4)C2,> 100 µM,4.23,,
COc1cc2c(c3c1OCO3)-c1c(cc(OC)c3c1OCO3)CN(c1ccc(CCN3CCCCC3)cc1)C2,3.21 µM,,12.52,
COc1cc2c(c3c1OCO3)-c1c(cc(OC)c3c1OCO3)CN(CCc1ccc3c(c1)OCO3)C2,,20.58,12.78,EC50 [4]: 0.122 µM
COc1cc2c(c3c1OCO3)-c1c(cc(OC)c3c1OCO3)CN(c1ccc(CCN3CCOCC3)cc1)C2,6.57 µM,16.7,,
COc1ccc2c(c1)CCN(CCN1Cc3cc(OC)c4c(c3-c3c(cc(OC)c5c3OCO5)C1)OCO4)C2,5.1 µM,,4.87,
COc1cc2c(cc1OC)CN(CCc1ccccc1N1Cc3cc(OC)c4c(c3-c3c(cc(OC)c5c3OCO5)C1)OCO4)CC2,> 100 µM,0.85,,
